In ChEMBL document CHEMBL3217706, “Identification of CYP1A2 ligands by structure-based and ligand-based virtual screening” (Medchemcomm, 2011) one finds inhibition and IC50 data, which are given here for ten molecules.

The structures appear in SMILES notation.

Data set [1] deals with T1, CYP1A2 (Homo sapiens, UniProt P05177).
T1 sequence (P05177 whole entry): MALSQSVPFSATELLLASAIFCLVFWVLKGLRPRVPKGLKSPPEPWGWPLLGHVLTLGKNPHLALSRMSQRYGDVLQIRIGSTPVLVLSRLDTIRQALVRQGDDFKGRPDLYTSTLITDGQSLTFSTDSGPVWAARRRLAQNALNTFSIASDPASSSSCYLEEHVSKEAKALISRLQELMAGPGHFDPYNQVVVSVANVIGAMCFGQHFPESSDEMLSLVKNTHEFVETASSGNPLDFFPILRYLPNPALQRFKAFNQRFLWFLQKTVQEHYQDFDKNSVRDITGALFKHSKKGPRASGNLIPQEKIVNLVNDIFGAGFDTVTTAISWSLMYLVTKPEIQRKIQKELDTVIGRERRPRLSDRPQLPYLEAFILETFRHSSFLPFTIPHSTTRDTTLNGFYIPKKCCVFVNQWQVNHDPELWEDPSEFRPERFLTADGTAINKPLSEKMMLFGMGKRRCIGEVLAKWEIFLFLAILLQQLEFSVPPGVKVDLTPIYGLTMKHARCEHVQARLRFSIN
The experiment in a line: Inhibition of human recombinant CYP1A2 EROD activity expressed in Escherichia coli JM109 assessed as inhibition of de-ethylation of 7-ethoxyresorufin to resorufin at 0.3 uM by spectrofluorometric analysis. Conditions: recombinant human CYP1A2 expressed in Escherichia coli JM109, probe 7-ethoxyresorufin. Format: ADME.

For data set [2], the target named is T2, Cytochrome P450 1A2 (Homo sapiens, UniProt P05177).
T2 sequence (P05177 whole entry): T1 sequence (P05177 whole entry)
The experiment in a line: Inhibition of human recombinant CYP1A2 EROD activity expressed in Escherichia coli JM109 assessed as inhibition of de-ethylation of 7-ethoxyresorufin to resorufin by spectrofluorometric analysis. The format is ADME.

As usually defined, the inhibition is the share of the control response that was lost under treatment. As for `O=c1cc(-c2ccccc2)oc2c1ccc1ccccc12` [ALPHA-NAPHTHOFLAVONE], the inhibition at 0.3 µM in data set [1] is above 50%.
One may read the IC50 as the midpoint of a concentration-inhibition curve. Regarding `O=[N+]([O-])c1ccc2nc3c(nc2c1)-c1cccc2cccc-3c12`, the inhibition at 0.3 µM in data set [1] was above 50%. Moreover, the IC50 in data set [2] is 21 nM.
As for `CN1C(=O)/C(=C2\NC(=S)NC2=O)c2cc(Br)ccc21`, the inhibition at 0.3 µM in data set [1] was above 50%. Moreover, the IC50 in data set [2] was found to be 49 nM.
For `Cn1c(=O)cc2c3c(c(N)ccc31)C(=O)c1ccccc1-2`, the inhibition at 0.3 µM in data set [1] is above 50%. Moreover, the IC50 in data set [2] is 16 nM.
On to `Brc1ccc2c3c(cccc13)-c1nc3ccccc3nc1-2`, for which, in data set [1], the inhibition at 0.3 µM was above 50%. In data set [2], the IC50 was 22 nM.
With `N#CC1=C(N)Oc2c(ccc3ccccc23)C1c1ccc2c(c1)OCC2` (centres undefined), the inhibition at 0.3 µM in data set [1] is above 50%. In data set [2], the IC50 was 112 nM.
For the molecule `COc1ccc(C=O)cc1COc1c(Cl)cc(Cl)cc1Cl`, the inhibition at 0.3 µM in data set [1] is above 50%. Also, the IC50 in data set [2] is 57 nM.
Regarding `C(=N\n1cnnc1)/c1ccc(-c2cccc3ccccc23)o1`, the inhibition at 0.3 µM in data set [1] was above 50%. In addition, the IC50 in data set [2] turned out to be 48 nM.
For `Cc1nn(-c2ccccc2)c2nc(C(F)(F)F)cc(C(F)(F)F)c12`, the inhibition at 0.3 µM in data set [1] is above 50%. Further, in data set [2], the 50% inhibitory concentration (IC50) turned out to be 231 nM.
Take `COc1ccc(Nc2nc(-c3cccs3)cs2)cc1`: in data set [1], the inhibition at 0.3 µM was above 50%. The IC50 in data set [2] was 72 nM.
